Assays:
Assay in all cases: relative viability (nuclei count vs DMSO), 5 days (fraction); higher = more cells survive
[1] = test system: RERF-LC-KJ
Outline: (§1)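 After 5 days of treatment, lung cancer cells in 1536-well plates were fixed and stained in a single step (final 0.05% Triton X-100, 1% formaldehyde, 1 ug/ml Hoechst) and their nuclei counted on 4× images. Treatment had been applied by pin tool the day after seeding as one drug alone or as a fixed anchor-drug dose with five library-drug doses (not always all listed) in √10 steps. Relative viability is the nuclei count of treated wells divided by that of vehicle wells, and values are medians of duplicate plates.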

[2] = test system: NCI-H1915
Outline: as §1

[3] = test system: ChaGo-K-1
Outline: as §1

[4] = test system: NCI-H1666
Outline: as §1

[5] = test system: LC-2-ad
Outline: as §1

[6] = test system: PC-14
Outline: as §1

[7] = test system: NCI-H647
Outline: as §1

[8] = test system: NCI-H23
Outline: as §1

[9] = test system: HCC-78
Outline: as §1

[10] = test system: NCI-H2405
Outline: as §1

[11] = test system: NCI-H2087
Outline: as §1

[12] = test system: HCC-827
Outline: as §1

[13] = test system: NCI-H650
Outline: as §1

[14] = test system: EPLC-272H
Outline: as §1

[15] = test system: LCLC-97TM1
Outline: as §1

[16] = test system: NCI-H322M
Outline: as §1

[17] = test system: H3255
Outline: as §1

[18] = test system: NCI-H2126
Outline: as §1

[19] = test system: 201T
Outline: as §1

[20] = test system: NCI-H2347
Outline: as §1

CC1(C)CCC(c2ccc(Cl)cc2)=C(CN2CCN(c3ccc(C(=O)NS(=O)(=O)c4ccc(N[C@H](CCN5CCOCC5)CSc5ccccc5)c(S(=O)(=O)C(F)(F)F)c4)cc3)CC2)C1 [Navitoclax] + NC(=O)Nc1cc(-c2cccc(F)c2)sc1C(=O)N[C@H]1CCCNC1 [AZD7762] (partner 0.2 µM)
relative viability ([1]; first compound 0.005 µM): 1
relative viability ([1]; first compound 0.01581 µM): 1.08
relative viability ([1]; first compound 0.05 µM): 0.824
relative viability ([1]; first compound 0.1581 µM): 1.12
relative viability ([1]; first compound 0.5 µM): 0.921
relative viability ([2]; first compound 0.005 µM): 0.726
relative viability ([2]; first compound 0.01581 µM): 0.697
relative viability ([2]; first compound 0.05 µM): 0.657
relative viability ([2]; first compound 0.1581 µM): 0.639
relative viability ([2]; first compound 0.5 µM): 0.597
relative viability ([3]; first compound 0.005 µM): 0.879
relative viability ([3]; first compound 0.01581 µM): 0.875
relative viability ([3]; first compound 0.05 µM): 0.655
relative viability ([3]; first compound 0.1581 µM): 0.883
relative viability ([3]; first compound 0.5 µM): 0.803
relative viability ([4]; first compound 0.005 µM): 0.934
relative viability ([4]; first compound 0.01581 µM): 0.883
relative viability ([4]; first compound 0.05 µM): 0.738
relative viability ([4]; first compound 0.1581 µM): 0.861
relative viability ([4]; first compound 0.5 µM): 0.882
relative viability ([5]; first compound 0.005 µM): 0.835
relative viability ([5]; first compound 0.01581 µM): 0.957
relative viability ([5]; first compound 0.05 µM): 0.796
relative viability ([5]; first compound 0.1581 µM): 0.815
relative viability ([5]; first compound 0.5 µM): 0.822
relative viability ([6]; first compound 0.005 µM): 0.326
relative viability ([6]; first compound 0.01581 µM): 0.413
relative viability ([6]; first compound 0.05 µM): 0.255
relative viability ([6]; first compound 0.1581 µM): 0.322
relative viability ([6]; first compound 0.5 µM): 0.325
relative viability ([7]; first compound 0.005 µM): 0.413
relative viability ([7]; first compound 0.01581 µM): 0.446
relative viability ([7]; first compound 0.05 µM): 0.492
relative viability ([7]; first compound 0.1581 µM): 0.343
relative viability ([7]; first compound 0.5 µM): 0.438
relative viability ([8]; first compound 0.005 µM): 0.28
relative viability ([8]; first compound 0.01581 µM): 0.33
relative viability ([8]; first compound 0.05 µM): 0.291
relative viability ([8]; first compound 0.1581 µM): 0.195
relative viability ([8]; first compound 0.5 µM): 0.23
relative viability ([9]; first compound 0.005 µM): 0.985
relative viability ([9]; first compound 0.01581 µM): 0.612
relative viability ([9]; first compound 0.05 µM): 0.508
relative viability ([9]; first compound 0.1581 µM): 0.607
relative viability ([9]; first compound 0.5 µM): 0.667
relative viability ([10]; first compound 0.005 µM): 0.703
relative viability ([10]; first compound 0.01581 µM): 0.857
relative viability ([10]; first compound 0.05 µM): 0.622
relative viability ([10]; first compound 0.1581 µM): 0.698
relative viability ([10]; first compound 0.5 µM): 0.653
relative viability ([11]; first compound 0.005 µM): 1.18
relative viability ([11]; first compound 0.01581 µM): 1.38
relative viability ([11]; first compound 0.1581 µM): 1.29
relative viability ([11]; first compound 0.5 µM): 1.41
relative viability ([12]; first compound 0.005 µM): 0.274
relative viability ([12]; first compound 0.01581 µM): 0.188
relative viability ([12]; first compound 0.05 µM): 0.186
relative viability ([12]; first compound 0.1581 µM): 0.199
relative viability ([12]; first compound 0.5 µM): 0.235
relative viability ([13]; first compound 0.005 µM): 0.946
relative viability ([13]; first compound 0.01581 µM): 1.12
relative viability ([13]; first compound 0.05 µM): 1.13
relative viability ([13]; first compound 0.1581 µM): 0.801
relative viability ([13]; first compound 0.5 µM): 0.937
relative viability ([14]; first compound 0.005 µM): 0.26
relative viability ([14]; first compound 0.05 µM): 0.3
relative viability ([14]; first compound 0.1581 µM): 0.143
relative viability ([14]; first compound 0.5 µM): 0.257
relative viability ([15]; first compound 0.005 µM): 0.236
relative viability ([15]; first compound 0.01581 µM): 0.301
relative viability ([15]; first compound 0.05 µM): 0.181
relative viability ([15]; first compound 0.1581 µM): 0.253
relative viability ([15]; first compound 0.5 µM): 0.22
relative viability ([16]; first compound 0.005 µM): 0.648
relative viability ([16]; first compound 0.01581 µM): 0.626
relative viability ([16]; first compound 0.05 µM): 0.511
relative viability ([16]; first compound 0.1581 µM): 0.587
relative viability ([16]; first compound 0.5 µM): 0.679
relative viability ([17]; first compound 0.005 µM): 0.891
relative viability ([17]; first compound 0.01581 µM): 1.03
relative viability ([17]; first compound 0.05 µM): 0.851
relative viability ([17]; first compound 0.1581 µM): 0.922
relative viability ([17]; first compound 0.5 µM): 0.805
relative viability ([18]; first compound 0.005 µM): 1.06
relative viability ([18]; first compound 0.01581 µM): 0.931
relative viability ([18]; first compound 0.05 µM): 1.05
relative viability ([18]; first compound 0.1581 µM): 0.915
relative viability ([18]; first compound 0.5 µM): 0.947
relative viability ([19]; first compound 0.005 µM): 0.656
relative viability ([19]; first compound 0.01581 µM): 0.656
relative viability ([19]; first compound 0.05 µM): 0.41
relative viability ([19]; first compound 0.1581 µM): 0.565
relative viability ([19]; first compound 0.5 µM): 0.504
relative viability ([20]; first compound 0.005 µM): 0.809
relative viability ([20]; first compound 0.01581 µM): 0.594
relative viability ([20]; first compound 0.05 µM): 0.579
relative viability ([20]; first compound 0.1581 µM): 0.685
relative viability ([20]; first compound 0.5 µM): 0.579
